In ChEMBL document CHEMBL2417373, “Substituted tetrahydroisoquinolines as selective antagonists for the orexin 1 receptor” (J Med Chem, 2013):
Activity calls are given as the source filed them. The calls are words filed in the database; no cut-off is given here.

How the values were obtained:
Homo sapiens = species on record: Homo sapiens; test: Selectivity ratio of Ke for OX2 receptor (unknown origin) to Ke for OX1 receptor (unknown origin)
[1] = target: T1, Orexin/Hypocretin receptor type 1 (Homo sapiens) (UniProt O43613); test: Antagonist activity at OX1 receptor (unknown origin) expressed in RD-HGA16 cells assessed as inhibition orexin A-induced calcium mobilization by fluorescence assay; type: functional, cell-based
T1 sequence (whole entry): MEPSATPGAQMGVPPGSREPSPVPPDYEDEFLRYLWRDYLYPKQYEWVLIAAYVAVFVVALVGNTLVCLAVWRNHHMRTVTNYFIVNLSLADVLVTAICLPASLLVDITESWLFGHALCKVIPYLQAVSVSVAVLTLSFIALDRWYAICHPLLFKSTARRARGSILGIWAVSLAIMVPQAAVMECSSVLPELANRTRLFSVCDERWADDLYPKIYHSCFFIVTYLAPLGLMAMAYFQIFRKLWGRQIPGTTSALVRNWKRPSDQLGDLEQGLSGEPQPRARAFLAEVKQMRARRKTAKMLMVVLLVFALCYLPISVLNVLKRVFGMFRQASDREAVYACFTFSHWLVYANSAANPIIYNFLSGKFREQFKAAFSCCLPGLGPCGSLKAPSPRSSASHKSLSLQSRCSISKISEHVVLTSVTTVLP

[2] = target: T2, Orexin receptor type 2 (Homo sapiens) (UniProt O43614); test: Antagonist activity at OX2 receptor (unknown origin) expressed in RD-HGA16 cells assessed as inhibition orexin A-induced calcium mobilization at 10 uM by fluorescence assay; type: functional, cell-based
T2 sequence (whole entry): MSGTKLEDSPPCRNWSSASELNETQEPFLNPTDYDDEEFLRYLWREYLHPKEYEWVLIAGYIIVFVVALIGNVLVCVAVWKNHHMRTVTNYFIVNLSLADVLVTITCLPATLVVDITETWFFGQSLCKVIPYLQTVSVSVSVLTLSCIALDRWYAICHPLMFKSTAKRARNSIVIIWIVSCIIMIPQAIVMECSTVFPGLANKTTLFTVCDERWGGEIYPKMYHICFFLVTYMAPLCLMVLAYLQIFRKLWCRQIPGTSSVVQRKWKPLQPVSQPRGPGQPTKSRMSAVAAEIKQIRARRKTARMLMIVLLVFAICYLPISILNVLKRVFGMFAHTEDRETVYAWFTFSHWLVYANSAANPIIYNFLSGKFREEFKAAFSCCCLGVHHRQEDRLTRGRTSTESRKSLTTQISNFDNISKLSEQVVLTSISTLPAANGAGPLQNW

[3] = target: T1, Orexin/Hypocretin receptor type 1 (Homo sapiens); test: Agonist activity at OX1 receptor (unknown origin) expressed in RD-HGA16 cells assessed as calcium mobilization at 10 uM by fluorescence assay; type: functional, cell-based

Compound	Ratio (Homo sapiens)	Ke(app) [1]	inhibition [2]	Activity [3]
COc1ccc(CC2c3cc(OC)c(OC)cc3CCN2CC(=O)N2CCCC(c3ccccc3)C2)cc1OC (stereo not given)	2.6	3530 nM	–	–
CCCCCCNC(=O)Nc1ccc(CNC(=O)CN2CCc3cc(OC)c(OC)cc3C2Cc2ccc(OC)c(OC)c2)cc1 (stereo not given)	0.7	3680 nM	–	–
COc1ccc(CC2c3cc(OC)c(OC)cc3CCN2CC(=O)NC2CC(C)Nc3ccccc32)cc1OC (stereo not given)	–	7170 nM	< 30%	–
COc1ccc(CC2c3cc(OS(=O)(=O)C(F)(F)F)c(OC)cc3CCN2CC(=O)NCc2ccccc2)cc1OC (stereo not given)	–	10 nM	–	inactive
COc1ccc(CC2c3cc(OC)c(OC)cc3CCN2CC(=O)NCc2ccc(N(C)C)cc2)cc1OC (stereo not given)	–	3230 nM	–	–
COc1ccc(CC2c3cc(OC)c(OC)cc3CCN2CC(=O)NCc2ccc(F)cc2)cc1OC (stereo not given)	12.4	279 nM	–	inactive
CCOc1cc2c(cc1OC)CCN(CC(=O)NCc1ccccn1)C2Cc1ccc(OC)c(OC)c1 (stereo not given)	–	87.4 nM	–	inactive
COc1ccc(CC2c3cc(OC)c(OC)cc3CCN2CC(=O)NCc2ccc(NC(C)=O)cc2)cc1OC (stereo not given)	–	> 10000 nM	< 30%	–
COc1ccc(CC2c3cc(OC)c(OC)cc3CCN2CC(=O)NCc2cccnc2)cc1OC (stereo not given)	–	152 nM	–	inactive
COc1ccc(CC2c3cc(OC)c(OC)cc3CCN2CC(=O)Nc2cccc3ccccc23)cc1OC (stereo not given)	–	732 nM	< 30%	inactive
COc1ccc(CC2c3cc(OC)c(OC)cc3CCN2CC(=O)NCCCc2ccccc2)cc1OC (stereo not given)	–	2370 nM	< 30%	–
CCOc1cc2c(cc1OC)CCN(CC(=O)NCc1ccccc1)C2Cc1ccc(OC)c(OC)c1 (stereo not given)	–	30 nM	–	inactive
COc1ccc(CC2c3cc(OCc4cccnc4)c(OC)cc3CCN2CC(=O)NCc2ccccc2)cc1OC (stereo not given)	–	277 nM	< 30%	inactive
COc1ccc(CC2c3cc(OC)c(OC)cc3CCN2CC(=O)NCC(N)=O)cc1OC (stereo not given)	–	> 10000 nM	< 30%	–
COc1ccc(CC2c3cc(OC)c(OC)cc3CCN2CC(=O)Nc2cc(C)nc3ccccc23)cc1OC (stereo not given)	–	4510 nM	< 30%	–
CCCOc1cc2c(cc1OC)CCN(CC(=O)NCc1ccccc1)C2Cc1ccc(OC)c(OC)c1 (stereo not given)	–	17.3 nM	–	inactive
COc1ccc(CC2c3cc(OC)c(OC)cc3CCN2CC(=O)NCCCN(C)C)cc1OC (stereo not given)	–	> 10000 nM	< 30%	–
COc1ccc(CC2c3cc(OC)c(OC)cc3CCN2CC(=O)NCc2ccccn2)cc1OC (stereo not given)	–	261 nM	–	inactive
CCCOc1cc2c(cc1OC)CCN(CC(=O)NCc1cccnc1)C2Cc1ccc(OC)c(OC)c1 (stereo not given)	–	41.9 nM	–	inactive

Compound	Ratio (Homo sapiens)	Ke(app) [1]	inhibition [2]	Activity [3]
COc1ccc(CC2c3cc(OC)c(OC)cc3CCN2CC(=O)Nc2ccnc3c(F)cccc23)cc1OC (stereo not given)	–	4220 nM	< 30%	–
COc1ccc(CC2c3cc(OC)c(OC)cc3CCN2CC(=O)Nc2ccccc2-c2ccccc2)cc1OC (stereo not given)	1.9	944 nM	–	inactive
COc1ccc(CC2c3cc(OS(=O)(=O)c4ccc(C)cc4)c(OC)cc3CCN2CC(=O)NCc2ccccc2)cc1OC (stereo not given)	–	118 nM	< 30%	inactive
COc1ccc(CC2c3cc(OC)c(OC)cc3CCN2CC(=O)NCc2ccncc2)cc1OC (stereo not given)	–	1010 nM	< 30%	–
COc1ccc(CC2c3cc(OC)c(OC)cc3CCN2CC(=O)N[C@@H](C)c2ccccc2)cc1OC (single isomer, unassigned; diastereomer 1)	–	> 10000 nM	< 30%	–
COc1ccc(CC2c3cc(OCCCCN(C)C)c(OC)cc3CCN2CC(=O)NCc2ccccc2)cc1OC (stereo not given)	–	5740 nM	< 30%	–
COc1ccc(CC2c3cc(OCC(F)(F)F)c(OC)cc3CCN2CC(=O)NCc2ccccc2)cc1OC (stereo not given)	–	9.4 nM	–	inactive
COc1ccc(CC2c3cc(OCc4ccccc4)c(OC)cc3CCN2CC(=O)NCc2ccccc2)cc1OC (stereo not given)	–	402 nM	< 30%	inactive
CCCCCCCNC(=O)CN1CCc2cc(OC)c(OC)cc2C1Cc1ccc(OC)c(OC)c1 (stereo not given)	3.9	589 nM	–	inactive
COc1cc2c(cc1O)C(Cc1ccc(OC)c(OC)c1)N(CC(=O)NCc1ccccc1)CC2 (stereo not given)	3.8	1530 nM	–	–
COc1ccc(CC2c3cc(OCCN4CCCCC4)c(OC)cc3CCN2CC(=O)NCc2ccccc2)cc1OC (stereo not given)	–	8040 nM	< 30%	–
COc1ccc(CC2c3cc(OCC(F)(F)F)c(OC)cc3CCN2CC(=O)NCc2ccccn2)cc1OC (stereo not given)	–	22.5 nM	–	inactive
CCOc1cc2c(cc1OC)CCN(CC(=O)NCc1cccnc1)C2Cc1ccc(OC)c(OC)c1 (stereo not given)	–	15.7 nM	–	inactive
COc1ccc(CC2c3cc(OC)c(OC)cc3CCN2CC(=O)N(C)Cc2ccccc2)cc1OC (stereo not given)	–	2090 nM	–	–
COc1ccc(CC2c3cc(OC)c(OC)cc3CCN2CC(=O)N2CCC(c3ccccc3)CC2)cc1OC (stereo not given)	–	> 10000 nM	< 30%	–
COc1ccc(CC2c3cc(OC)c(OC)cc3CCN2CC(=O)Nc2ccc(-c3ccccc3)cc2)cc1OC (stereo not given)	–	2240 nM	< 30%	–
CCCOc1cc2c(cc1OC)CCN(CC(=O)NCc1ccccn1)C2Cc1ccc(OC)c(OC)c1 (stereo not given)	–	20.6 nM	–	inactive
CNC(=O)CNC(=O)CN1CCc2cc(OC)c(OC)cc2C1Cc1ccc(OC)c(OC)c1 (stereo not given)	–	7640 nM	< 30%	–
COc1ccc(CC2c3cc(OS(=O)(=O)c4ccccc4)c(OC)cc3CCN2CC(=O)NCc2ccccc2)cc1OC (stereo not given)	95.1	30.5 nM	–	inactive

Compound	Ratio (Homo sapiens)	Ke(app) [1]	inhibition [2]	Activity [3]
COc1ccc(CC2c3cc(OCCCCOc4ccccc4)c(OC)cc3CCN2CC(=O)NCc2ccccc2)cc1OC (stereo not given)	–	43.5 nM	–	inactive
COc1ccc(CC2c3cc(OC)c(OC)cc3CCN2CC(=O)NC2CCCc3ccccc32)cc1OC (stereo not given)	15.9	41.1 nM	–	inactive
CCCCCC(=O)Nc1ccc(CNC(=O)CN2CCc3cc(OC)c(OC)cc3C2Cc2ccc(OC)c(OC)c2)cc1 (stereo not given)	–	> 10000 nM	–	–
COc1ccc(CC2c3cc(OCc4ccccn4)c(OC)cc3CCN2CC(=O)NCc2ccccc2)cc1OC (stereo not given)	–	101 nM	< 30%	inactive
COc1ccc(CC2c3cc(OC)c(OC)cc3CCN2CC(=O)NCc2ccccc2)cc1OC (stereo not given)	–	199 nM	–	inactive
COC(=O)CNC(=O)CN1CCc2cc(OC)c(OC)cc2C1Cc1ccc(OC)c(OC)c1 (stereo not given)	–	6630 nM	< 30%	–
CCCCCCOc1cc2c(cc1OC)CCN(CC(=O)NCc1ccccc1)C2Cc1ccc(OC)c(OC)c1 (stereo not given)	–	315 nM	–	inactive
COc1ccc(CC2c3cc(OC)c(OC)cc3CCN2CC(=O)OCc2ccccc2)cc1OC (stereo not given)	–	> 10000 nM	< 30%	–
COc1ccc(CC2c3cc(OCC4CCCCC4)c(OC)cc3CCN2CC(=O)NCc2ccccc2)cc1OC (stereo not given)	–	> 10000 nM	< 30%	–
COc1ccc(CC2c3cc(OC)c(OC)cc3CCN2CC(=O)N2CCN(c3ccccc3)CC2)cc1OC (stereo not given)	–	> 10000 nM	< 30%	–
COc1ccc(CC2c3cc(OC)c(OC)cc3CCN2CC(=O)N2CCc3ccccc3C2)cc1OC (stereo not given)	3	3030 nM	–	–
COc1ccc(CC2c3cc(OC)c(OC)cc3CCN2CC(=O)NCc2ccc(Cl)cc2)cc1OC (stereo not given)	14	162 nM	–	inactive
COc1ccc(CC2c3cc(OC)c(OC)cc3CCN2CC(=O)NCCc2ccccc2)cc1OC (stereo not given)	–	3250 nM	< 30%	–
COc1ccc(CC2c3cc(OCCN(C)C)c(OC)cc3CCN2CC(=O)NCc2ccccc2)cc1OC (stereo not given)	–	4740 nM	< 30%	–
CCCCOc1cc2c(cc1OC)CCN(CC(=O)NCc1ccccc1)C2Cc1ccc(OC)c(OC)c1 (stereo not given)	34.6	54.7 nM	–	inactive
CCCC(=O)Oc1cc2c(cc1OC)CCN(CC(=O)NCc1ccccc1)C2Cc1ccc(OC)c(OC)c1 (stereo not given)	–	78.5 nM	–	inactive
COc1ccc(CC2c3cc(OCCC(C)C)c(OC)cc3CCN2CC(=O)NCc2ccccc2)cc1OC (stereo not given)	12	326 nM	–	inactive
COc1ccc(CC2c3cc(OS(C)(=O)=O)c(OC)cc3CCN2CC(=O)NCc2ccccc2)cc1OC (stereo not given)	297	7.3 nM	–	inactive
COc1ccc(CC2c3cc(OC)c(OC)cc3CCN2CC(=O)Nc2cccc(-c3ccccc3)c2)cc1OC (stereo not given)	–	8980 nM	< 30%	–
